Assay results reported in patent US9550808B2, “Peptide inhibitors of nicotinic acetylcholine receptor” (LIMITED LIABILITY COMPANY SYNEURO, priority 2013, dated 2017).
Non-standard residues stand in square brackets, D forms with d. Residues, ends and D or L forms follow the SMILES beside them. *: point of attachment. Dab = NCC[C@H](N)C(=O)O; NHBn = c1ccc(CN*)cc1; βAla = NCCC(=O)O

How the values were obtained:
[1] = target: T1, muscle-type nicotinic acetylcholine receptor (α1, β1, δ and ε-subunits) (Homo sapiens, UniProt P02708+Q04844+Q07001); test: Inhibition of acetylcholine-induced current through muscle-type nAChR expressed in Xenopus laevis oocytes (two-electrode voltage clamp); assay type: cell-based; conditions: for inhibiting activity towards the muscle receptor, retrosequences compared with initial Az3 and [Tyr2]Az3: 1 mM
T1 construct: expressed in transfected cells; host or cells: Xenopus laevis oocytes (nuclear injection of plasmids, CMV promoter)

mimic wrinkles = conditions: cited from earlier work
male Balb mice = test: Acute toxicity in mice (intraperitoneal and per os); assay type: in vivo; conditions: for acute toxicity after intraperitoneal administration: male Balb mice, 1, 3, 10 and 30 mg/kg i.p.; for acute toxicity per os (administration into the stomach): male Balb mice, 2.5, 10, 40, 160 mg/kg per os
Description: Estimation of acute toxicity (LD50) after intraperitoneal administration of peptide H-Trp-Trp-Pro-Lys-Pro-OH (SEQ ID NO: 1) was carried out on 40 male Balb mice weighting 20-23 g, separated into five equal groups. Mice were intraperitoneally injected with the peptide at doses of 1 mg/kg, 3 mg/kg, 10 mg/kg and 30 mg/kg in 0.2 ml sterile 0.9% NaCl solution. Control animals were injected with same volume of 0.9% NaCl.
Investigation of acute toxicity (LD50 per os) after administration of the peptide directly into a stomach by a special catheter was conducted on 40 male Balb mice weighting 20-23 g. Animals were randomly divided into 5 groups. The drug was applied at doses 2.5 mg/kg, 10 mg/kg, 40 mg/kg, 160 mg/kg in 0.2 ml sterile solution of 0.9%. Control animals were injected with the same volume of 0.9% NaCl.

[2] = cream containing 5% Vialox, 28-day application

T1 sequence (P02708 21-457): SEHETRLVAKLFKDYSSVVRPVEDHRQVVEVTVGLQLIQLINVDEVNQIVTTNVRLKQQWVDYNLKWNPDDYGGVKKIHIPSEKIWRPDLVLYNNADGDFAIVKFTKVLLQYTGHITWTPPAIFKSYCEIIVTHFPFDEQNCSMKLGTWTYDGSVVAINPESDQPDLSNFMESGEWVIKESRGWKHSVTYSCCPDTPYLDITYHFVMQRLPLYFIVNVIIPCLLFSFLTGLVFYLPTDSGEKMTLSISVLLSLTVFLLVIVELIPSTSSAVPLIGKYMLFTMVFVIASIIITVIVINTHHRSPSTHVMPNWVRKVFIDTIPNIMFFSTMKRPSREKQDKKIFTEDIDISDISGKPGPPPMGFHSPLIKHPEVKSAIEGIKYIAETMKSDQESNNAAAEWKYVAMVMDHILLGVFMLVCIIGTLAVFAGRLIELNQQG
T1 sequence (Q04844 21-493): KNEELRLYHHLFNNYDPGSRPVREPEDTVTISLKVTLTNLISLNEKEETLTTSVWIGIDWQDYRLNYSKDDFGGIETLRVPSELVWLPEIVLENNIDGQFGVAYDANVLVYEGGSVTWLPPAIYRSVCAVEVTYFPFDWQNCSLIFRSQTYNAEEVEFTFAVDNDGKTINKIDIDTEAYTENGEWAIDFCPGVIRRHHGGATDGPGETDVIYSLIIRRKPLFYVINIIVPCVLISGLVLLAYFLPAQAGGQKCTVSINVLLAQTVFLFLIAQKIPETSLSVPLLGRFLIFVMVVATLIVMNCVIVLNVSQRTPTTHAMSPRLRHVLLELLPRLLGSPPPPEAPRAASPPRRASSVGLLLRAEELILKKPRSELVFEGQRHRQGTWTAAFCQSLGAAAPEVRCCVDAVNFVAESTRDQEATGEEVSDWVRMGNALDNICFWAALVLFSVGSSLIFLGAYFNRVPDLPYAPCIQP
T1 sequence (P11230 24-501, further chain): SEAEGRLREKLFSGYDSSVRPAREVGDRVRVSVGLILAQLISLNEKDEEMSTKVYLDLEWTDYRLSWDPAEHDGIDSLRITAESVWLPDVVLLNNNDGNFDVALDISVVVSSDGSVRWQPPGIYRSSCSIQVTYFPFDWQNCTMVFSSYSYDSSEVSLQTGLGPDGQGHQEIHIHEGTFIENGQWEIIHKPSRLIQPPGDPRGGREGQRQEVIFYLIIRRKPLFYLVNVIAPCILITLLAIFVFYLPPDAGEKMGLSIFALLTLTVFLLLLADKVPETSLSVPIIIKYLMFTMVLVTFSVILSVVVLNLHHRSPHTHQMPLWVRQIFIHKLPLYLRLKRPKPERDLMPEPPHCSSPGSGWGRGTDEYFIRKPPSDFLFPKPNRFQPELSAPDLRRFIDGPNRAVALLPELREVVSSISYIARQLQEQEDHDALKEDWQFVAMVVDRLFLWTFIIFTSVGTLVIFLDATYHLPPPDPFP
T1 sequence (Q07001 22-517): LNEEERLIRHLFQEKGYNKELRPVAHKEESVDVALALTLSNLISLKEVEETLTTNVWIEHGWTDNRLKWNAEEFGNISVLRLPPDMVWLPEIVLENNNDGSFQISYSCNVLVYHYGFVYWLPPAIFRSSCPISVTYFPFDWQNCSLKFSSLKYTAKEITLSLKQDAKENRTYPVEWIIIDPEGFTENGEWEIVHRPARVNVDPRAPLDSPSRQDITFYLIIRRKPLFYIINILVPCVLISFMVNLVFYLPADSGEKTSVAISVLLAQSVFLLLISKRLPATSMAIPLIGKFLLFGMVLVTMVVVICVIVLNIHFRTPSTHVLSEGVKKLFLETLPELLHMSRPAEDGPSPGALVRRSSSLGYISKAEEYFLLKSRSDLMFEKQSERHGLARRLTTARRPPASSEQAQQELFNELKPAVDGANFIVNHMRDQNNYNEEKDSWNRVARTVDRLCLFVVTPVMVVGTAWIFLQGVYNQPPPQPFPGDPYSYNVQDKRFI

NCCC(=O)N1CCC[C@H]1C(=O)N[C@@H](CCN)C(=O)NCc1ccccc1 [Syn-Ake, H-β-Ala-Pro-Dab-NHBzl] (H-[βAla]-Pro-[Dab]-NHBn)
IC50 [1]: 180 µM | decrease of depth of wrinkles on foreheads (mimic wrinkles; cream containing 4% Syn-Ake, 28-day application, volunteers): up to 52%

Ac-Glu-Glu-Met-Gln-Arg-Arg-NH2 (Ac-EEMQRR-NH2) [argireline, cosmetic hexapeptide repeating a fragment of SNAP 25]
decrease in the depth of mimic wrinkles (mimic wrinkles; cream containing 10% argireline, topical 30-day use, volunteers): 30%

DNWWPKPPHQGPRPPRPRPKP [azemiopsin, reference compound]
blockage of the muscle receptor activity ([1]; 50 μM, 20 μM acetylcholine (FIG. 1)): Complete blockage

H-Gly-Pro-Arg-Pro-Ala-NH2 (H-GPRPA-NH2) [Vialox]
reduction of skin roughness (mimic wrinkles; [2]): up to 47% | reduction of wrinkle size (mimic wrinkles; [2]): up to 49%

H-Tyr-D-Ala-Gly-Phe-Leu-OH [Leuphasyl]
enhancement of argireline effect (mimic wrinkles; Leuphasyl in combination with argireline): 1.5 fold

H-WWPKP-OH [SEQ ID NO: 1, H-Trp-Trp-Pro-Lys-Pro-OH]
acute toxicity after intraperitoneal administration (male Balb mice): did not reveal any toxic effects | acute toxicity after intraperitoneal administration (male Balb mice; listed as SEQ ID NO:1): does not exhibit toxicity | acute toxicity per os (administration into the stomach) (male Balb mice): no toxic effect was observed | acute toxicity per os (administration into the stomach) (male Balb mice; listed as SEQ ID NO:1): does not exhibit toxicity | inhibition of acetylcholine induced currents, comparison of overlapping pentapeptide fragments of azemiopsin ([1]; 150 μg/ml (FIG. 2)): most active

H-WYPKP-NH2 [SEQ ID NO: 42, H-Trp-Tyr-Pro-Lys-Pro-NH2]
IC50 [1]: 23 µM | times more functionally active than commercial analogue Syn-Ake ([1]; ratio of IC50 values): eight

PKPWW
inhibiting activity towards the muscle receptor, retrosequences compared with initial Az3 and [Tyr2]Az3 [1]: reduced

PKPYW
inhibiting activity towards the muscle receptor, retrosequences compared with initial Az3 and [Tyr2]Az3 [1]: reduced
